In US20090169635A1, “PHARMACEUTICAL COMPOSITIONS AND USE THEREOF” (priority 2007, published 2009):
Structures can show the parent of a compound that is named as a salt.

What was measured:
[1] = test system: Mycobacterium tuberculosis strain H37RV (ATCC 27294); experiment: Tuberculosis model: mice inoculated intravenously with M. tuberculosis, treated intraperitoneally for 4 weeks, observed to D56; type: in vivo, BALB/C female mice; conditions: for Numbers of deaths: 4 weeks
[2] = test system: Mycobacter avium complex (MAC); conditions: 100 mg/kg IM five days a week for four weeks; cited from earlier work
[3] = test system: Staphylococcus pneumoniae (ATCC 6301); experiment: Bacterial pneumonia model: mice inoculated intratracheally, single intravenous treatment 20 hours later, mortality recorded for 10 days; type: in vivo, Male CD-1 mice; conditions: Vancomycin dose 1 mg/kg i.v.
Description: An investigation of the antibacterial efficacy of nanoparticulate forms of parenterally administered Vancomycin was carried out in comparison with conventional parenteral Vancomycin […] for injection,
Bacteria: […] (ATCC #6301), Gram-positive serotype
Animals: Male CD-1 (Charles River Laboratory) mice weighing 24±2 g provided are used. Space allocation for animals is 45×23×21 cm for 10 mice. The animals are housed in animal cages and are maintained in a hygienic environment under controlled temperature (22°-23° C.) and humidity (50% -60%) with 12 hours light/dark cycles for at least one week in the laboratory prior to initiation of the study. Free access to standard lab food and water supply is allowed.
Pneumonia model: Mice were inoculated intratracheally (IT) with a LD90-100 of […] pneumoniae (ATCC 6301) (9.7×10^6 […]) in 40 μl PBS. In 16 hours, all mice developed pronounced pneumonia, confirmed by histological observation. Test formulations and vehicle were diluted with 5% sterile dextrose and administered intravenously to animals 20 hours after bacterial inoculation. Mortality was recorded once daily for 10 days.

[4] = cited from earlier work
[5] = 100 mg/kg i.p., 2 x week, cumulative 800 mg/kg
[6] = 200 mg/kg i.p., 5 x week, cumulative 4000 mg/kg
[7] = D56, 200 mg/kg i.p., 5 x week for 4 weeks

Molecule: [H]/N=C(/N)N[C@H]1[C@H](O)[C@@H](O)[C@H](O[C@@H]2O[C@@H](C)[C@](O)(C=O)[C@H]2O[C@@H]2O[C@@H](CO)[C@H](O)[C@@H](O)[C@@H]2NC)[C@@H](N/C(N)=N\[H])[C@@H]1O [Streptomycin USP, Streptomycin sulfate]
- Numbers of deaths ([1]; 100 mg/kg i.p., 2 x week, cumulative 800 mg/kg SM base): 5/12
- Survival rate (%) 14 d [1, 5]: 83%
- Survival rate (%) 28 d [1, 5]: 58%
- Survival rate (%) 56 d [1, 5]: 58%
- Numbers of deaths ([1]; 200 mg/kg i.p., 5 x week, cumulative 4000 mg/kg SM base): 1/12
- Survival rate (%) 14 d [1, 6]: 92%
- Survival rate (%) 28 d [1, 6]: 92%
- Survival rate (%) 56 d [1, 6]: 92%
- Body weight ([1]; D14, 100 mg/kg i.p., 2 x week): 14.90 ± 1.83 g
- Log (CFU/Lung) ([1]; D14, 100 mg/kg i.p., 2 x week): 8.16 ± 0.25 Log (CFU/Lung)
- Log (CFU/Spleen) ([1]; D14, 100 mg/kg i.p., 2 x week): 7.55 ± 0.26 Log (CFU/Spleen)
- Body weight ([1]; D14, 200 mg/kg i.p., 5 x week): 16.22 ± 0.39 g
- Log (CFU/Lung) ([1]; D14, 200 mg/kg i.p., 5 x week): 7.85 ± 0.14 Log (CFU/Lung)
- Log (CFU/Spleen) ([1]; D14, 200 mg/kg i.p., 5 x week): 6.90 ± 0.08 Log (CFU/Spleen)
- Body weight ([1]; D28, 100 mg/kg i.p., 2 x week): 16.73 ± 2.64 g
- Log (CFU/Lung) ([1]; D28, 100 mg/kg i.p., 2 x week): 8.37 ± 0.36 Log (CFU/Lung)
- Log (CFU/Spleen) ([1]; D28, 100 mg/kg i.p., 2 x week): 7.48 ± 0.51 Log (CFU/Spleen)
- Body weight ([1]; D28, 200 mg/kg i.p., 5 x week): 19.62 ± 0.29 g
- Log (CFU/Lung) ([1]; D28, 200 mg/kg i.p., 5 x week): 7.57 ± 0.26 Log (CFU/Lung)
- Log (CFU/Spleen) ([1]; D28, 200 mg/kg i.p., 5 x week): 6.66 ± 0.28 Log (CFU/Spleen)
- Body weight [1, 7]: 17.85 ± 1.15 g
- Log (CFU/Lung) [1, 7]: 8.86 ± 0.18 Log (CFU/Lung)
- Log (CFU/Spleen) [1, 7]: 7.21 ± 0.23 Log (CFU/Spleen)
- bacterial count of MAC from spleen, lungs and liver [2]: significant reduction in bacterial count

Molecule: Vancomycin sulfate [Vancomycin injection (USP)]
- Mortality ([3]; 10 days): 70%
- Survival ([3]; 10 days): 30%
- Day 1 (deaths recorded that day) ([3]; n=10, Day 1): 0
- Day 2 (deaths recorded that day) ([3]; n=10, Day 2): 0
- Day 3 (deaths recorded that day) ([3]; n=10, Day 3): 0
- Day 4 (deaths recorded that day) ([3]; n=10, Day 4): 1
- Day 5 (deaths recorded that day) ([3]; n=10, Day 5): 3
- Day 6 (deaths recorded that day) ([3]; n=10, Day 6): 2
- Day 7 (deaths recorded that day) ([3]; n=10, Day 7): 0
- Day 8 (deaths recorded that day) ([3]; n=10, Day 8): 1
- Day 9 (deaths recorded that day) ([3]; n=10, Day 9): 0
- Day 10 (deaths recorded that day) ([3]; n=10, Day 10): 0
- concentration in epithelial lining fluid ([4]; patients, lung epithelial lining fluid versus plasma): ≤ 20 % of plasma levels
- patients with inadequate concentrations ([4]; standard dosage (1 g twice daily)): approximately 40 % of patients
